From PMC9765455 (Science Translational Medicine, 2022)
Where “and” joins values, the source holds several entries; their conditions need not be identical. Equal values may be shown once. Read-outs that look alike come from different tables or passages of the source.

Columns and labels:
SARS-CoV-2 Delta variant [1] = test system: SARS-CoV-2 Delta variant; set-up: species or system Syrian hamsters; settings: hamster, in vivo
[2] = test system: SARS-CoV-2 Omicron variant (lineage BA.1); format: cell-based; settings: Vero-TMPRSS2, fig. S5
SARS-CoV-2 Delta variant [3] = assay: Time of addition assay in Calu-3 cells; format: cell-based
SARS-CoV-2 Delta variant [4] = format: cell-based; settings: HBE cells
SARS-CoV-2 Delta variant [5] = assay: Light sheet microscopy of whole lungs (viral antigen distribution); set-up: species or system Syrian hamsters; settings: hamster, in vivo
SARS-CoV-2 Delta variant [6] = test system: SARS-CoV-2 Delta variant; set-up: species or system Syrian hamsters; settings: hamster, in vivo; remark: listed apart in the source
SARS-CoV-2 Delta variant [7] = format: cell-based; settings: HBE cells, 333 nM or more; detection limit of the plaque assay
SARS-CoV-2 Delta variant [8] = format: in vivo, Syrian hamsters; settings: for lung pathology / histopathological findings of viral pneumonia: hamster, in vivo; for histopathological severity of viral pneumonia / viral RNA by ISH: therapeutic treatment
SARS-CoV-2 Delta variant [9] = format: in vivo, Syrian hamsters; settings: for viral load in the lungs of contact hamsters: 6 days after co-housing
SARS-CoV-2 Delta variant [10] = assay: Antiviral activity of main protease inhibitors with P-gp inhibitor CP-100356 (intracellular viral RNA); format: cell-based; settings: Vero-TMPRSS2; S-217622 100 nM, nirmatrelvir 300 nM; CP-100356 1 μM
SARS-CoV-2 Delta variant [11] = format: cell-based; settings: Vero-TMPRSS2 and Calu-3 cells
SARS-CoV-2 Delta variant [12] = format: cell-based; settings: Vero-TMPRSS2 and Calu-3 cells; remark: listed apart in the source
[13] = prophylactic, MPV, S-217622 30 mg/kg
[14] = prophylactic, S-217622 200 mg/kg

SMILES: Cn1cnc(Cn2c(=O)[nH]/c(=N\c3cc4cn(C)nc4cc3Cl)n(Cc3cc(F)c(F)cc3F)c2=O)n1 [S-217622]
- decrease of virus titer in the lung (SARS-CoV-2 Delta variant [1]): greater than 10^3 fold
- expression of Il6 (SARS-CoV-2 Delta variant [1]): decreased the expression of Il6
- peak of body weight loss (SARS-CoV-2 Delta variant [1]): 7% and 5%
- viral loads in nasal turbinates (SARS-CoV-2 Delta variant [1]): limited effect
- viral loads in the lungs (SARS-CoV-2 Delta variant [1]): decreased
- Fig. 4H: Relative Il6 RNA level (SARS-CoV-2 Delta variant [1]; 30 mg/kg): 1.88 and 3.04 and 1.64 and 1.56
- Fig. 4J: Relative Cxcl10 RNA level (SARS-CoV-2 Delta variant [1]; 30 mg/kg): 5.91 and 3.38 and 3.37 and 5.99
- Fig. 4C: Viral RNA (SARS-CoV-2 Delta variant [1]; 200 mg/kg): 184497 and 149004 and 250553 and 219560
- Fig. 4H: Relative Il6 RNA level (SARS-CoV-2 Delta variant [1]; 200 mg/kg): 1.73 and 2.57 and 2.07 and 2.20
- Fig. 4J: Relative Cxcl10 RNA level (SARS-CoV-2 Delta variant [1]; 200 mg/kg): 0.55 and 0.70 and 0.74 and 0.64
- antiviral potency against Omicron variant (lineage BA.1) [2]: remarkable antiviral potency
- Fig. 1I: Relative viral RNA to mock treated (SARS-CoV-2 Delta variant [3]; Both stages, third column group c10-c13): 0.047 and 0.045 and 0.032
- effect on cellular entry process (0 to 2 hpi) (SARS-CoV-2 Delta variant [3]; Calu-3, 1 μM): but not the cellular entry process of infection
- effect on post-entry process (2 to 7 hpi) (SARS-CoV-2 Delta variant [3]; Calu-3, 1 μM): has an effect on the post-entry process
- Fig. 1I: Relative viral RNA to mock treated (SARS-CoV-2 Delta variant [3]; Entry, first column group c0-c3): 1.24 and 0.89 and 1.15
- Fig. 1I: Relative viral RNA to mock treated (SARS-CoV-2 Delta variant [3]; Entry, third column group c10-c13): 0.033 and 0.037 and 0.04
- Fig. 1I: Relative viral RNA to mock treated (SARS-CoV-2 Delta variant [3]; Post-entry, first column group c0-c3): 0.007 and 0.006
- Fig. 1I: Relative viral RNA to mock treated (SARS-CoV-2 Delta variant [3]; Post-entry, third column group c10-c13): 1.03 and 0.85 and 0.71
- LDH release into basal culture medium (SARS-CoV-2 Delta variant [4]): decreased
- signal distribution of viral antigen in the lungs (SARS-CoV-2 Delta variant [5]): limited
- antiviral activity compared with nirmatrelvir in hamsters (SARS-CoV-2 Delta variant [6]): higher antiviral activity than nirmatrelvir
- body weight (SARS-CoV-2 Delta variant [6]): continuously gained weight
- decrease in viral RNA load (SARS-CoV-2 Delta variant [6]): more than 10^5 fold
- expression of inflammatory cytokines (SARS-CoV-2 Delta variant [6]): decreased the expression of inflammatory cytokines
- seroconversion (SARS-CoV-2 Delta variant [6]): No seroconversion was observed
- virus titers (SARS-CoV-2 Delta variant [6]): under the detection limit
- Fig. 2D: Viral RNA (SARS-CoV-2 Delta variant [6]; 30 mg/kg): 9351446 and 5264474 and 6254487 and 4687980
- Fig. 2F: Virus titer (SARS-CoV-2 Delta variant [6]; 30 mg/kg): 2500000 and 1700000 and 2600000 and 3300000
- Fig. 2I: Relative Il6 RNA level (SARS-CoV-2 Delta variant [6]; 30 mg/kg): 1.88 and 3.04 and 1.64 and 1.56
- Fig. 2K: Relative Cxcl10 RNA level (SARS-CoV-2 Delta variant [6]; 30 mg/kg): 5.91 and 3.38 and 3.37 and 5.99
- Fig. 2L: Neutralizing antibody titer (SARS-CoV-2 Delta variant [6]; 30 mg/kg): 160 and 320
- Fig. 2F: Virus titer (SARS-CoV-2 Delta variant [6]; 200 mg/kg): n.d.(=100)
- Fig. 2G: Virus titer (SARS-CoV-2 Delta variant [6]; 200 mg/kg): n.d.(=100)
- Fig. 2I: Relative Il6 RNA level (SARS-CoV-2 Delta variant [6]; 200 mg/kg): 1.73 and 2.57 and 2.07 and 2.20
- Fig. 2K: Relative Cxcl10 RNA level (SARS-CoV-2 Delta variant [6]; 200 mg/kg): 0.55 and 0.70 and 0.74 and 0.64
- Fig. 2L: Neutralizing antibody titer (SARS-CoV-2 Delta variant [6]; 200 mg/kg): n.d.(=10)
- progeny virus titers (SARS-CoV-2 Delta variant [7]): < 100
- Histopathological severity score (SARS-CoV-2 Delta variant [8]; Fig. 5B, S-217622 dose group 30, individual animals): 14 and 7 and 4 and 5
- Histopathological severity score (SARS-CoV-2 Delta variant [8]; Fig. 5B, S-217622 dose group 200, individual animals): 3 and 5 and 4 and 7
- Histopathological severity score (SARS-CoV-2 Delta variant [8]; Fig. 5D, S-217622 dose group 30, individual animals): 14 and 16 and 15 and 13
- Histopathological severity score (SARS-CoV-2 Delta variant [8]; Fig. 5D, S-217622 dose group 200, individual animals): 17 and 19 and 20 and 6
- lung pathology / histopathological findings of viral pneumonia (SARS-CoV-2 Delta variant [8]): attenuated the lung pathology in a dose-dependent manner
- viral RNA by in situ hybridization (ISH) (SARS-CoV-2 Delta variant [8]; [13]): decreased
- Histopathological severity score (SARS-CoV-2 Delta variant [8]; [14]): lower than the vehicle control group
- viral RNA by in situ hybridization (ISH) (SARS-CoV-2 Delta variant [8]; [14]): undetectable
- histopathological severity of viral pneumonia (SARS-CoV-2 Delta variant [8]): neither MPV or S-217622 could attenuate
- viral RNA by ISH (SARS-CoV-2 Delta variant [8]): Positive signals for viral RNA were also detected
- viral load in the lungs of contact hamsters (SARS-CoV-2 Delta variant [9]; […]): no detectable viral titers
- Fig. 2N: Virus titer (SARS-CoV-2 Delta variant [9]; hamster, in vivo, 200 mg/kg): n.d.(=100)
- Fig. 2N: Virus titer (SARS-CoV-2 Delta variant [9]; second block c10-c12 (six animals: contact hamsters, 6 days after co-housing), […], 200 mg/kg): n.d.(=100)
- effect of CP-100356 on antiviral activity (SARS-CoV-2 Delta variant [10]): enhanced
- progeny viral RNA in the culture supernatants (SARS-CoV-2 Delta variant [11]): reduced the progeny viral RNA
- Infection with SARS-CoV-2 (immunofluorescence) (SARS-CoV-2 Delta variant [12]): inhibited

SMILES: CC(C)(C)[C@H](NC(=O)C(F)(F)F)C(=O)N1C[C@H]2[C@@H]([C@H]1C(=O)N[C@H](C#N)C[C@@H]1CCNC1=O)C2(C)C [Nirmatrelvir]
- effect of CP-100356 on antiviral activity (SARS-CoV-2 Delta variant [10]): enhanced

SMILES: CC(C)C(=O)OC[C@H]1O[C@@H](n2ccc(NO)nc2=O)[C@H](O)[C@@H]1O [Molnupiravir, reference compound]
- viral loads in nasal turbinates (SARS-CoV-2 Delta variant [1]): limited effect
- viral loads in the lungs (SARS-CoV-2 Delta variant [1]): decreased
- Fig. 4E: Virus titer (SARS-CoV-2 Delta variant [1]; listed as MPV): 700000 and 600000 and 1200000
- Fig. 4G: Relative Ifng RNA level (SARS-CoV-2 Delta variant [1]; listed as MPV): 3.06 and 2.07 and 2.71 and 2.27
- Fig. 4H: Relative Il6 RNA level (SARS-CoV-2 Delta variant [1]; listed as MPV): 2.40 and 3.11 and 2.02 and 2.46
- Fig. 4I: Relative Il10 RNA level (SARS-CoV-2 Delta variant [1]; listed as MPV): 3.33 and 2.30 and 2.69 and 2.83
- Fig. 4J: Relative Cxcl10 RNA level (SARS-CoV-2 Delta variant [1]; listed as MPV): 14.61 and 18.50 and 12.76 and 10.96
- Fig. 4K: Neutralizing antibody titer (SARS-CoV-2 Delta variant [1]; listed as MPV): 640 and 1280
- signal distribution of viral antigen in the lungs (SARS-CoV-2 Delta variant [5]): decreased the viral distribution
- Fig. 2H: Relative Ifng RNA level (SARS-CoV-2 Delta variant [6]; listed as MPV): 3.06 and 2.07 and 2.71 and 2.27
- Fig. 2I: Relative Il6 RNA level (SARS-CoV-2 Delta variant [6]; listed as MPV): 2.40 and 3.11 and 2.02 and 2.46
- Fig. 2J: Relative Il10 RNA level (SARS-CoV-2 Delta variant [6]; listed as MPV): 3.33 and 2.30 and 2.69 and 2.83
- Fig. 2K: Relative Cxcl10 RNA level (SARS-CoV-2 Delta variant [6]; listed as MPV): 14.61 and 18.50 and 12.76 and 10.96
- Histopathological severity score (SARS-CoV-2 Delta variant [8]; Fig. 5B, MPV group, individual animals, listed as MPV): 17 and 13
- Histopathological severity score (SARS-CoV-2 Delta variant [8]; Fig. 5D, MPV group, individual animals, listed as MPV): 17 and 12 and 18 and 19
- lung pathology / histopathological findings of viral pneumonia (SARS-CoV-2 Delta variant [8]): prominent
- viral RNA by in situ hybridization (ISH) (SARS-CoV-2 Delta variant [8]; [13]): decreased
- histopathological severity of viral pneumonia (SARS-CoV-2 Delta variant [8]): neither MPV or S-217622 could attenuate
- viral RNA by ISH (SARS-CoV-2 Delta variant [8]): Positive signals for viral RNA were also detected
- viral load in the lungs of contact hamsters (SARS-CoV-2 Delta variant [9]; […]): high viral load was detected
- Fig. 2N: Virus titer (SARS-CoV-2 Delta variant [9]; hamster, in vivo, listed as MPV): 1250000 and 1400000 and 800000
